“And” between values parts separate entries of the source, which are not always exact repeats. Identical values can stand only once. Toxic doses and inconclusive results are not listed. Rule as the data show it: active = T/C of 150% or more; inactive = T/C below 125%.
Tested on: L1210 leukemia ip in BDF1 mice, survival T/C
Experiment: NCI In Vivo Anticancer Drug Screen. Data for tumor model L1210 Leukemia (intraperitoneal) in B6D2F1 (BDF1) mice
Conditions: endpoint: mean survival time, higher = longer survival
How it was run: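 Value reflects the ratio of survival in compound-treated mice to survival in vehicle-treated controls, with both groups carrying the same transplanted tumor.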

[1] = dose: 100.0 mg/kg/injection, schedule: Q01DX001 (ip), vehicle: saline
[2] = dose: 200.0 mg/kg/injection, schedule: Q01DX001 (ip), vehicle: saline
[3] = dose: 400.0 mg/kg/injection, schedule: Q01DX001 (ip), vehicle: saline
[4] = dose: 100.0 mg/kg/injection, schedule: Q01DX001 (ip), vehicle: Klucel (hydroxypropylcellulose) (HPC)
[5] = dose: 100.0 mg/kg/injection, schedule: Q04DX003 (ip), vehicle: Klucel (hydroxypropylcellulose) (HPC)
[6] = dose: 200.0 mg/kg/injection, schedule: Q01DX001 (ip), vehicle: Klucel (hydroxypropylcellulose) (HPC)
[7] = dose: 200.0 mg/kg/injection, schedule: Q04DX003 (ip), vehicle: Klucel (hydroxypropylcellulose) (HPC)
[8] = dose: 400.0 mg/kg/injection, schedule: Q01DX001 (ip), vehicle: Klucel (hydroxypropylcellulose) (HPC)
[9] = dose: 400.0 mg/kg/injection, schedule: Q04DX003 (ip), vehicle: Klucel (hydroxypropylcellulose) (HPC)
[10] = dose: 100.0 mg/kg/injection, schedule: Q01DX009 (ip), vehicle: Klucel (hydroxypropylcellulose) (HPC)
[11] = dose: 100.0 mg/kg/injection, schedule: Q01DX009 (ip), vehicle: saline with Tween-80
[12] = dose: 100.0 mg/kg/injection, schedule: Q04DX003 (ip), vehicle: saline with Tween-80
[13] = dose: 200.0 mg/kg/injection, schedule: Q01DX009 (ip), vehicle: saline with Tween-80
[14] = dose: 200.0 mg/kg/injection, schedule: Q04DX003 (ip), vehicle: saline with Tween-80
[15] = dose: 400.0 mg/kg/injection, schedule: Q01DX009 (ip), vehicle: saline with Tween-80
[16] = dose: 400.0 mg/kg/injection, schedule: Q04DX003 (ip), vehicle: saline with Tween-80
[17] = dose: 100.0 mg/kg/injection, schedule: Q04DX003 (ip), vehicle: saline
[18] = dose: 200.0 mg/kg/injection, schedule: Q04DX003 (ip), vehicle: saline
[19] = dose: 400.0 mg/kg/injection, schedule: Q04DX003 (ip), vehicle: saline
[20] = dose: 200.0 mg/kg/injection, schedule: Q01DX009 (ip), vehicle: Klucel (hydroxypropylcellulose) (HPC)
[21] = dose: 400.0 mg/kg/injection, schedule: Q01DX009 (ip), vehicle: Klucel (hydroxypropylcellulose) (HPC)

Measured: T/C

N#CCCn1c2ccccc2c2ccccc21
inactive: dose: 50.0 mg/kg/injection, schedule: Q01DX001 (ip), vehicle: saline 96 % of control | dose: 50.0 mg/kg/injection, schedule: Q04DX002 (ip), vehicle: gum acacia 91 % of control | [1] 102 % of control | dose: 100.0 mg/kg/injection, schedule: Q04DX002 (ip), vehicle: gum acacia 91 % of control | [2] 102 % of control | dose: 200.0 mg/kg/injection, schedule: Q04DX002 (ip), vehicle: gum acacia 98 % of control | [3] 96 % of control

CCN1C(=O)C(Cl)=C(Cl)C1=O
inactive: dose: 1.56 mg/kg/injection, schedule: Q01DX009 (ip), vehicle: saline with Tween-80 94 % of control | dose: 3.13 mg/kg/injection, schedule: Q01DX009 (ip), vehicle: saline with Tween-80 91 % of control | dose: 6.25 mg/kg/injection, schedule: Q01DX009 (ip), vehicle: saline with Tween-80 92 % of control and 87 % of control

Cc1nnc(C)n1N
inactive: [1] 106 % of control | [2] 106 % of control | [3] 95 % of control

CCOC(=O)CCc1c[nH]c(C)c1C(=O)C(=O)OCC
inactive: [4] 95 % of control | [5] 93 % of control | [6] 98 % of control | [7] 102 % of control | [8] 95 % of control | [9] 96 % of control

Cc1c(C(=O)CCl)c(=O)n(-c2ccccc2)n1C
inactive: dose: 50.0 mg/kg/injection, schedule: Q01DX009 (ip), vehicle: Klucel (hydroxypropylcellulose) (HPC) 100 % of control | [10] 100 % of control | [5] 95 % of control | [7] 101 % of control

CC(=O)N/N=C(/C)C(O)(c1ccccc1)c1ccccc1
inactive: [11] 95 % of control | [12] 100 % of control | [13] 92 % of control | [14] 101 % of control | [15] 97 % of control | [16] 101 % of control

CCCCCCNC(C)(C)[P+](=O)O
inactive: [17] 105 % of control | [18] 108 % of control | [19] 102 % of control

Clc1ccc2nc(CI)c(CI)nc2c1
inactive: dose: 6.25 mg/kg/injection, schedule: Q01DX009 (ip), vehicle: acetone 102 % of control | dose: 12.5 mg/kg/injection, schedule: Q01DX009 (ip), vehicle: acetone 102 % of control | dose: 12.5 mg/kg/injection, schedule: Q04DX003 (ip), vehicle: acetone 104 % of control | dose: 25.0 mg/kg/injection, schedule: Q04DX003 (ip), vehicle: acetone 96 % of control

NCC(O)c1ccc(O)cc1 (stereo unspecified)
inactive: dose: 50.0 mg/kg/injection, schedule: Q04DX003 (ip), vehicle: saline 101 % of control | [1] 93 % of control | [17] 97 % of control | [2] 93 % of control | [18] 98 % of control | [3] 101 % of control

CCCC(=O)Oc1ccc(C(C)(C)CC(C)(C)C)cc1
inactive: [1] 94 % of control | [2] 98 % of control | [3] 100 % of control

CC(Cc1ccc2c(c1)OCO2)C(C)Cc1ccc2c(c1)OCO2 (stereo unspecified)
inactive: dose: 100.0 mg/kg/injection, schedule: Q01DX009 (ip), vehicle: other 102 % of control | dose: 100.0 mg/kg/injection, schedule: Q04DX003 (ip), vehicle: other 90 % of control | dose: 200.0 mg/kg/injection, schedule: Q01DX009 (ip), vehicle: other 109 % of control | dose: 200.0 mg/kg/injection, schedule: Q04DX003 (ip), vehicle: other 102 % of control | dose: 400.0 mg/kg/injection, schedule: Q01DX009 (ip), vehicle: other 91 % of control | dose: 400.0 mg/kg/injection, schedule: Q04DX003 (ip), vehicle: other 90 % of control

O=C(Nc1cccc(F)c1)Nc1ccc(Cl)cc1Cl
inactive: [10] 96 % of control | [20] 91 % of control

COc1cc(Cc2cc(OC)c(OC)cc2[N+](=O)[O-])c([N+](=O)[O-])cc1OC
inactive: [17] 108 % of control | [18] 108 % of control | [19] 120 % of control

Nc1ccc2c(O)c(N=Nc3ccc4c(O)cc(S(=O)(=O)O)cc4c3)c(S(=O)(=O)O)cc2c1
inactive: [10] 100 % of control | [17] 96 % of control | [20] 112 % of control | [18] 100 % of control | [21] 88 % of control | [19] 94 % of control

Oc1ccc(Cl)cc1/C=N/Nc1c2ccccc2nc2ccccc12
inactive: [1] 89 % of control | [2] 103 % of control | [3] 105 % of control

Clc1ccc2nsnc2c1
inactive: [4] 105 % of control | [6] 114 % of control

Cc1coc(NS(=O)(=O)c2ccc(N=Nc3c(N)[nH]c(=O)[nH]c3=O)cc2)c1C
inactive: [1] 103 % of control | [2] 96 % of control | [3] 104 % of control

COc1ccccc1/C=C/C(=O)c1ccccc1
inactive: [11] 89 % of control | [12] 98 % of control | [14] 94 % of control | [15] 89 % of control | [16] 96 % of control

CC(=O)C1CCC2(C)CCC(=O)C(C)C2C1 (stereo unspecified)
inactive: dose: 50.0 mg/kg/injection, schedule: Q04DX003 (ip), vehicle: Klucel (hydroxypropylcellulose) (HPC) 107 % of control | [4] 104 % of control | [10] 100 % of control | [5] 104 % of control | [6] 106 % of control | [20] 100 % of control | [7] 101 % of control | [8] 101 % of control | [21] 98 % of control | [9] 101 % of control

O=C1CCCCC1Cc1ccccc1 (stereo unspecified)
inactive: dose: 200.0 mg/kg/injection, schedule: Q04DX003 (ip), vehicle: acetone 95 % of control

CCCCNC(=O)CC(C)C(=O)O (stereo unspecified)
inactive: [11] 100 % of control | [13] 98 % of control | [15] 100 % of control

CNC(=O)Oc1cc(OC)ccc1C(=O)c1ccccc1
inactive: [10] 94 % of control | [20] 96 % of control | [21] 97 % of control

CNC(=O)c1ccccc1
inactive: [17] 104 % of control | [18] 98 % of control | [19] 98 % of control

C=CCSCCC
inactive: dose: 100.0 mg/kg/injection, schedule: Q01DX009 (ip), vehicle: saline 90 % of control | [17] 96 % of control | dose: 200.0 mg/kg/injection, schedule: Q01DX009 (ip), vehicle: saline 90 % of control | [18] 104 % of control | dose: 400.0 mg/kg/injection, schedule: Q01DX009 (ip), vehicle: saline 90 % of control | [19] 91 % of control

CC(=O)Nc1cc(NC(C)=O)c2nc(CN(C)c3ccc(C(=O)O)cc3)cnc2n1
inactive: dose: 100.0 mg/kg/injection, schedule: Q01DX001 (ip), vehicle: other 101 % of control | dose: 200.0 mg/kg/injection, schedule: Q01DX001 (ip), vehicle: other 98 % of control | dose: 400.0 mg/kg/injection, schedule: Q01DX001 (ip), vehicle: other 97 % of control

CC1CCC(=O)OCCCC(=O)C1 (stereo unspecified)
inactive: [1] 93 % of control | [3] 95 % of control

O=C(CC(c1ccccc1)N1CCN(c2ccccc2)CC1)c1ccccc1 (stereo unspecified)
inactive: [5] 102 % of control | [7] 97 % of control | [9] 94 % of control

COc1cccc2c1C(=O)c1c(O)c3c(c(O)c1C2=O)C[C@@](O)(/C(C)=N/NC(N)=S)C[C@@H]3OC1CC(N)C(O)C(C)O1 (stereo partly specified)
inactive: dose: 0.25 mg/kg/injection, schedule: Q04DX003 (ip), vehicle: water 102 % of control | dose: 0.5 mg/kg/injection, schedule: Q04DX003 (ip), vehicle: water 110 % of control | dose: 1.0 mg/kg/injection, schedule: Q01DX009 (ip), vehicle: water 121 % of control | dose: 1.0 mg/kg/injection, schedule: Q04DX003 (ip), vehicle: water 107 % of control | dose: 2.0 mg/kg/injection, schedule: Q01DX009 (ip), vehicle: water 119 % of control | dose: 2.0 mg/kg/injection, schedule: Q04DX003 (ip), vehicle: water 104 % of control | dose: 4.0 mg/kg/injection, schedule: Q04DX003 (ip), vehicle: water 114 % of control | dose: 7.0 mg/kg/injection, schedule: Q04DX003 (ip), vehicle: water 122 % of control | dose: 8.0 mg/kg/injection, schedule: Q04DX003 (ip), vehicle: water 107 % of control | dose: 10.6 mg/kg/injection, schedule: Q04DX003 (ip), vehicle: water 120 % of control | dose: 24.0 mg/kg/injection, schedule: Q04DX003 (ip), vehicle: water 122 % of control | dose: 32.0 mg/kg/injection, schedule: Q01DX009 (ip), vehicle: water 124 % of control

Source: PubChem BioAssay AID248 (DTP/NCI, 2004)
